From ChEMBL document CHEMBL1127204, “Synthesis of 1,3-diamino-2-hydroxypropane derivatives as pseudosymmetric HIV protease inhibitors” (Bioorg Med Chem Lett, 1993) come the findings set out here.

The structures appear in SMILES notation. Active and inactive are the calls of the source. The calls are words filed in the database; no cut-off is given here.

For the experiment, the target named is Human immunodeficiency virus type 1 protease (Human immunodeficiency virus 1) (UniProt Q72874). Nature of the experiment: Tested in vitro for inhibition of HIV-1 protease at concentration of 10e-6 M; No activity.
With `CC(C)C(NC(=O)C1Cc2ccccc2CN1CC(O)CN1Cc2ccccc2CC1C(=O)NC(C(=O)NC(C)(C)C)C(C)C)C(=O)NC(C)(C)C` (centres undefined), the inhibition entry was “inactive”. Take `N[C@H](CCNC(=O)C1Cc2ccccc2CN1CC(O)CN1Cc2ccccc2CC1C(=O)NCC[C@H](N)C(=O)O)C(=O)O` (some centres undefined): the inhibition entry was “inactive”.

Turning to `CC(C)C(NC(=O)CN(Cc1ccccc1)CC(O)CN(CC(=O)NC(C(=O)NC(C)(C)C)C(C)C)Cc1ccccc1)C(=O)NC(C)(C)C` (centres undefined), the inhibition entry is “inactive”. Next, `CC(C)(C)NC(=O)C1Cc2ccccc2CN1CC(O)CN1Cc2ccccc2CC1C(=O)NC(C)(C)C` (centres undefined): “inactive”.
